PMC9814779, “A triple farnesoid X receptor and peroxisome proliferator-activated receptor α/δ activator reverses hepatic fibrosis in diet-induced NASH in mice” (Communications Chemistry, 2020)

Tested on: PPARδ-regulated genes in C2C12 cells
Assay: PPARδ-regulated gene expression in differentiated C2C12 cells (qRT-PCR)
Format: cell-based, murine
Conditions: C2C12 myotubes, 1 μM, 8 h
Experimental: HepG2 cells (DSMZ) were grown in DMEM high glucose, supplemented with 10% FCS, 1 mM SP, penicillin (100 U/mL), and streptomycin (100 μg/mL) at 37 °C and 5% CO2 and seeded in 6-well plates (2 × 10^6 per well). After 24 h, medium was changed to Minimal Essential Medium supplemented with 1% charcoal-stripped FCS, penicillin (100 U/mL), streptomycin (100 μg/mL), and 2 mM L-glutamine. After an additional 24 h, cells were incubated with test compound 41 (0.1 µM, 0.3 µM, 1 μM), OCA (1 μM), or elafibranor (1 µM) dissolved in the same medium with 0.1% DMSO or medium with 0.1% DMSO alone as untreated control for 12 h, harvested, washed with cold phosphate-buffered saline (PBS), and then directly used for RNA extraction. C2C12 cells (American Type Culture Collection, ATCC) were grown in DMEM high glucose, supplemented with 10% FCS, 1 mM SP, penicillin (100 U/mL), and streptomycin (100 μg/mL) at 37 °C and 5% CO2 and seeded in 6-well plates (1 × 10^6 per well). […] FXR- and PPAR-regulated gene expression was then studied by quantitative real-time PCR (qRT-PCR) analysis with a StepOnePlus System (Life Technologies, Carlsbad, CA, USA) using PowerSYBRGreen (Life Technologies; 12.5 μL per well). […] Data were analyzed by the comparative ΔΔCT method with glyceraldehyde 3-phosphate dehydrogenase (GAPDH) as reference gene. […]

CC(C)(C)c1ccc(C(=O)Nc2cccc(CCC(=O)O)c2)c(NC(=O)c2ccc(-c3ccco3)cc2)c1 [compound 41, 3-(3-[4-{tert-Butyl}-2-{4-(2-furyl)}benzamido]phenyl)propanoic acid]
upregulation of PCK and GLUT3 mRNA: comparable efficacy as the selective PPARδ agonist L165,041 | effect on LPL expression (compared with L165,041): less pronounced
